{"source": "patent US12297241B2", "about": "“Method to engineer transplantable human tissues” (The Regents of the University of California, priority 2018, dated 2025)", "key": {"[1]": {"test_system": "miR-124-HSV-tk teratomas (H1 ESC line)", "assay": "In vivo enrichment of miR-124-HSV-tk teratomas with intratumoral GCV, scRNA-seq", "set-up": "species or system Rag2−/−;γc−/− immunodeficient mice", "procedure": "(§1) FIGS. 1A-1F: Molecular Sculpting of the Teratoma through miRNAs. (FIG. 1A) Schematic of miRNA-HSV-tk-GFP construct. 2A is gene encoding for a self-cleaving peptide. Upon transcription of construct it will silenced if appropriate endogenously expressed miRNA is present in the cell. (FIG. 1B) Schematic of how developing teratoma should form in the presence of Ganciclovir (GCV, 80 mg/kg/d) if cells were transduced with miRNA-HSV-tk construct. (FIG. 1C) Phase images from light microscopy showing H1 cell survival after 3 and 5 days in the presence of GCV (10 μM). H1 ESC line was either transduced with GFP control (EGIP backbone) or miR-124-HSV-tk-GFP. (FIG. 1D) Fluorescent microscopy and phase images showing HEK293T and HeLA cells transduced with either No GFP control, HSV-tk-GFP, or miR-21-HSV-tk-GFP. (FIG. 1E) Quantification of (FIG. 1D) using flow cytometry and gating based on the presence or absence of GFP. (FIG. 1F) In vivo studies of miR-124-HSV-tk-GFP teratomas in the presence of GCV administration (80 mg/kg/d) showing cell type fraction log fold-change based on different cell types with accompanying Z-scores compared to miR-124-HSV-tk-GFP teratomas in the absence of GCV.\nApplicant then tested the miRNA-HSV-tk constructs in vivo with the goal to grow a teratoma that is enriched for a desired lineage. For this task the miR-124-HSV-tk construct was selected to enrich for the neural lineage. After the H1 ESC line was successfully transduced and selected for the miR-124-HSV-tk construct, cells were subcutaneously injected into Rag2^−/−;γc^−/− immunodeficient mice and allowed to form teratomas as described above. Once teratomas reached a minimum of 1 cm in diameter, intratumoral injections with GCV (80 mg/kg/d) for half to tumors began until they grew an appropriate time for extraction (˜10 weeks).\nHowever, enrichment for foregut was also observed. To the best os Applicant's knowledge, there is no known published literature on miR-124 having a role in foregut development."}, "H1 ESC line": {"test_system": "H1 ESC line", "assay": "HSV-tk suicide gene killing test with GCV in transduced H1 ESC line", "type": "cell-based, human", "details": "GCV 10 μM, 5 days", "procedure": "as §1, with “(FIG. 1F) In vivo studies of miR-124-HSV-tk-GFP teratomas in the presence of GCV administration (80 mg/kg/d) showing cell type fraction log fold-change based on different cell types with accompanying Z-scores compared to miR-124-HSV-tk-GFP teratomas in the absence of GCV.” left out\nmiRNA-HSV-tk constructs were tested in vitro in the H1 ESC line. The functionality of the suicide gene HSV-tk was assessed in the presence of GCV. […] Furthermore, the unique miRNA specificity of the constructs was assessed based on cell type. […]"}, "[2]": {"details": "intratumoral GCV 80 mg/kg/d vs tumor without GCV"}}, "data": [{"smiles": "Nc1nc(O)c2ncn(COC(CO)CO)c2n1", "note": "[GCV, ganciclovir]", "values": [{"measurement": "tumor size", "setting": "[1]; intratumoral GCV 80 mg/kg/d until extraction (~10 weeks) vs tumor without GCV", "value": "smaller size"}, {"measurement": "cell types depleted (scRNA-seq)", "setting": "[1]; [2]", "value": "muscle, retinal pigmented epithelium, and many other cell types"}, {"measurement": "cell-type fraction enriched (scRNA-seq)", "setting": "[1]; [2]", "value": "early neurons, neuronal progenitors, Schwann cells, and foregut"}, {"measurement": "external heterogeneity of tumor", "setting": "[1]; [2]", "value": "less heterogeneous"}, {"measurement": "cell survival in the presence of GCV", "setting": "H1 ESC line; H1 cells transduced with GFP control (EGIP backbone alone)", "value": "unaffected"}, {"measurement": "cell survival in the presence of GCV", "setting": "H1 ESC line; H1 cells transduced with the miRNA-HSV-tk construct", "value": "total cell death"}]}]}
